Data published in US11576914B2, “Drug for treating or preventing disorder caused by TGF-β signaling, and application thereof” (THE DOSHISHA, priority 2017, dated 2023).

Experiments:
caspase 3/7 = assay: Caspase-Glo 3/7 Assay in human corneal endothelial cells in the presence of AKP-001; format: cell-based; settings: 24 hours
Method: Cultured human corneal endothelial cells were seeded at a rate of 1×10^4 per well in a 96-well plate coated with laminin-511E8, and the cells were cultured until reaching confluence at 37° C. (5% CO^2). For the medium, used was OptiMEM-I (invitrogen, 31985-088)+8% FBS (Thermo, SH30084.03)+5 ng/mL epidermal growth factor (invitrogen, PHG0311)+20 μg/mL L-ascorbic acid 2-sesquimagnesium phosphate hydrate (SIGMA, A8960)+200 mg/L calcium chloride dihydrate (SIGMA, C7902)+0.08% chondroitin sulfate (Wako Pure Chemical Industries, Ltd., 032-14613)+50 μg/mL gentamicin (invitrogen, 15710-064)+1 μM SB431542 (WAKO, 192-16541)+10 μM SB203580 (Cayman, 13067).
Upon reaching confluence, the culturing was further conducted for one more week with OptiMEM-I (invitrogen, 31985-088)+8% FBS (Thermo, SH30084.03)+20 μg/mL+200 mg/L calcium chloride dihydrate (SIGMA, C7902)+0.08% chondroitin sulfate (Wako Pure Chemical Industries, Ltd., 032-14613)+50 μg/mL gentamicin (invitrogen, 15710-064).
After one week, the medium was removed, and a medium with 0.1 μM, 0.3 μM, 1 μM, 3 μM, 10 μM, 30 μM and 100 μM AKP-001 included therein was added, followed by culturing for 24 hours. For the medium, used was OptiMEM-I (invitrogen, 31985-088)+8% FBS (Thermo, SH30084.03)+20 μg/mL+200 mg/L calcium chloride dihydrate (SIGMA, C7902)+0.08% chondroitin sulfate (Wako Pure Chemical Industries, Ltd., 032-14613)+50 μg/mL gentamicin (invitrogen, 15710-064).
After the observation, the caspase 3/7 activity was measured by Caspase-Glo 3/7 Assay according to the following procedure. The medium was discarded to 50 μl per well, and Caspase Glo 3/7 Assay Reagent (mixture of Caspase-Glo 3/7 Assay Buffer and Caspase-Glo 3/7 Assay Substrate) (Promega, G8091) solution was added to the 50 μl/well to reach 1:1 with the medium. The operations from this point on were conducted while light was blocked. […] After standing, 80 μl was transferred to an Assay plate (Corning, 3912, Assay plate 96 well, white polystyrene), and the […] was measured using GloMax-Multi Detection System (Promega, E7051).

[1] = system: Fuchs corneal endothelial dystrophy (FECD) model mice (Col8a2 Q455K/Q455K); assay: In vivo evaluation in FECD model mice; settings: ophthalmic solution 0.1 mM, 1 mM, 10 mM, 2 μl twice daily, 3 months
Method: In the present example, mice having a type 8 collagen mutation (Col8a2^Q455K/Q455K) are used as Fuchs corneal endothelial dystrophy (FECD) model mice.
Grading of the severity of FECD was performed on the basis of corneal endothelium images prior to instillation testing, and FECD model mice aged 20-24 weeks with similar symptoms were used. The prepared AKP-001 ophthalmic solution (0.1 mM, 1 mM, and 10 mM) is instilled into the left and right eyes, 2 μl at a time, twice daily in the morning and evening for 45 mice. Otsuka Normal Saline (Otsuka Pharmaceutical Co., Ltd.) is used as a control. The instillation period is set to be 3 months, during which the person in charge of the experimentation carries out the experimentation in a blinded state regarding the AKP-001 ophthalmic solution and the control ophthalmic solution.
Prior to the start of the instillation testing, corneal endothelial images are observed with a contact corneal endothelial specular (KSSP slit-scanning wide-field contact specular microscope (Konan medical Inc., Hyogo, Japan)) to conduct grading. After starting the instillation testing, the corneal endothelial images of the mice are observed once every 4 weeks using the contact corneal endothelial specular to evaluate the effectiveness of the AKP-001 ophthalmic solution.

With `O=C(Cc1c(F)cccc1Cl)Nc1onc(-c2ccc(F)cc2)c1-c1ccncn1` [AKP-001, 5-[(2-chloro-6-fluorophenyl)acetylamino]-3-(4-fluorophenyl)-4-(4-pyrimidinyl)isoxazole] the “caspase 3/7 activity compared to the control group” value (caspase 3/7; 0.1 μM, 0.3 μM, 1 μM and 3 μM) was “no significant difference”, the “caspase 3/7 activity compared to the control group” value (caspase 3/7; 10 μM, 30 μM and 100 μM) was “significantly activated” and the “concentrations at which no damage to the cells is caused” value (caspase 3/7) was ≤ 10 µM. The “decrease in corneal endothelial cell density compared to the control” value [1] was “suppressed” and the “percentage of the area of guttae compared to the control” value [1] was “decreased”.
